Measurements as given in patent publication US20060161001A1, “Substituted heterocyclic compounds and methods of use” (Amgen Inc., priority 2004, published 2006).

Test system: LPS induced TNF release
Experiment: THP1 cell assay (LPS induced TNF release)
Assay type: cell-based
Settings: Homo sapiens, THP-1; THP1 cells, LPS induced TNF-α secretion, 3 h at 37° C.
Method: Lipopolysaccharide-Activated THP1 Cell TNF Production Assay
THP1 cells are resuspended in fresh THP1 media (RPMI 1640, 10% heat-inactivated FBS, 1XPGS, 1XNEAA, plus 30 μM OME) at a concentration of 1E6/mL. One hundred microliters of cells per well are plated in a polystyrene 96-well tissue culture. One microgram per mL of bacterial LPS is prepared in THP1 media and is transferred to the wells. Test compounds are dissolved in 100% DMSO and are serially diluted 3-fold in a polypropylene 96-well microtiter plate (drug plate). HI control and LO control wells contain only DMSO. One microliter of test compound from the drug plate followed by 10 μL of LPS are transferred to the cell plate. The treated cells are induced to synthesize and secrete TNF-α at 37° C. for 3 h. Forty microliters of conditioned media are transferred to a 96-well polypropylene plate containing 110 μL of ECL buffer (50 mM Tris-HCl pH 8.0, 100 mM NaCl, 0.05% Tween 20, 0.05% NaN3 and 1% FBS) supplemented with 0.44 nM MAB610 monoclonal Ab (R&D Systems), 0.34 nM ruthenylated AF210NA polyclonal Ab (R&D Systems) and 44 μg/mL sheep anti-mouse M280 Dynabeads (Dynal). After a 2 h incubation at RT with shaking, the reaction is read on the ECL M8 Instrument (IGEN Inc.). A low voltage is applied to the ruthenylated TNF-α immune complexes, which in the presence of TPA (the active component in Origlo), results in a cyclical redox reaction generating light at […]. The amount of secreted TNF-α in the presence of compound compared with that in the presence of DMSO vehicle alone (HI control) is calculated using the formula: % control (POC)=(cpd−average LO)/(average HI−average LO)*100. Data (consisting of POC and inhibitor concentration in μM) is fitted to a 4-parameter equation (y=A+((B−A)/(I+((x/C)ˆD))), where A is the minimum y (POC) value, B is the maximum y (POC), C is the x (cpd concentration) at the point of inflection and D is the slope factor) using a Levenburg-Marquardt non-linear regression algorithm.

Row | Structure (SMILES) | IC50 [µM]
1 | c1ccc(CCNc2nccc(N3CCCc4cnc(-c5ccccc5)cc43)n2)cc1 [Example 3, N-Phenethyl-4-(7-phenyl-3,4-dihydro-1,6-naphthyridin-1(2H)-yl)pyrimidin-2-amine] | ≤ 20
2 | CC(Cc1cccc(CO)c1)Nc1nccc(N2CCCc3cnc(-c4ccccc4)cc32)n1 (stereo not shown) [Example 4, (3-(2-(4-(7-Phenyl-3,4-dihydro-1,6-naphthyridin-1(2H)-yl)pyrimidin-2-ylamino)-propyl)phenyl)methanol] | ≤ 20
3 | CC(Cc1cccc(CN)c1)Nc1nccc(N2CCCc3cnc(-c4ccccc4)cc32)n1 (stereo not shown) [Example 5, N-(1-(3-(Aminomethyl)phenyl)propan-2-yl)-4-(7-phenyl-3,4-dihydro-1,6-naphthyridin-1(2H)-yl)pyrimidin-2-amine] | ≤ 20
4 | CC(C)(C)OC(=O)N1CCC(Nc2nccc(N3CCCc4cnc(-c5ccccc5)cc43)n2)CC1 [Example 7, tert-Butyl 4-(4-(7-phenyl-3,4-dihydro-1,6-naphthyridin-1(2H)-yl)pyrimidin-2-ylamino)piperidine-1-carboxylate] | ≤ 20
5 | c1ccc(-c2cc3c(cn2)CCCN3c2ccnc(NC3CCNCC3)n2)cc1 [Example 8, 4-(7-Phenyl-3,4-dihydro-1,6-naphthyridin-1(2H)-yl)-N-(piperidin-4-yl)pyrimidin-2-amine] | ≤ 20
6 | CC(=O)N1CCC(Nc2nccc(N3CCCc4cnc(-c5ccccc5)cc43)n2)CC1 [Example 9, 1-(4-(4-(7-Phenyl-3,4-dihydro-1,6-naphthyridin-1(2H)-yl)pyrimidin-2-ylamino)-piperidin-1-yl)ethanone] | ≤ 20
7 | C[C@@H](Cc1cccc([C@@H](C)N)c1)Nc1nccc(N2CCCc3cnc(-c4ccccc4)cc32)n1 [Example 10, N-((S)-1-(3-((R)-1-Aminoethyl)phenyl)propan-2-yl)-4-(7-phenyl-3,4-dihydro-1,6-naphthyridin-1(2H)-yl)pyrimidin-2-amine] | ≤ 20
8 | CC(=O)c1cccc(C[C@H](C)Nc2nccc(N3CCCc4cnc(-c5ccccc5)cc43)n2)c1 [Example 12, (S)-1-(3-(2-(4-(7-Phenyl-3,4-dihydro-1,6-naphthyridin-1(2H)-yl)pyrimidin-2-yl-amino)propyl)phenyl)ethanone] | ≤ 20
9 | NCC(=O)N1CCC(Nc2nccc(N3CCCc4cnc(-c5ccccc5)cc43)n2)CC1 [Example 13, 2-Amino-1-(4(4-(7-phenyl-3,4-dihydro-1,6-naphthyridin-1(2H)-yl)pyrimidin-2-yl-amino)piperdin-1-yl)ethanone] | ≤ 20
10 | CC(C)NCCC(=O)N1CCC(Nc2nccc(N3CCCc4cnc(-c5ccccc5)cc43)n2)CC1 [Example 14, 3-(Isopropylamino)-1-(4(4-(7-phenyl-3,4-dihydro-1,6-naphthyridin-1(2H)-yl)pyrimidin-2-ylamino)piperdin-1-yl)propan-1-one] | ≤ 20
11 | CNCCC(=O)N1CCC(Nc2nccc(N3CCCc4cnc(-c5ccccc5)cc43)n2)CC1 [Example 15, 3-(Methylamino)-1-(4(4-(7-phenyl-3,4-dihydro-1,6-naphthyridin-1(2H)-yl)-pyrimidin-2-ylamino)piperdin-1-yl)propan-1-one] | ≤ 20
12 | CCNCCC(=O)N1CCC(Nc2nccc(N3CCCc4cnc(-c5ccccc5)cc43)n2)CC1 [Example 16, 3-(Ethylamino)-1-(4(4-(7-phenyl-3,4-dihydro-1,6-naphthyridin-1(2H)-yl)pyrimidin-2-ylamino)piperdin-1-yl)propan-1-one] | ≤ 20
13 | COC(=O)[C@@H](Cc1ccccc1)Nc1nccc(N2CCCc3cnc(-c4ccccc4)cc32)n1 [Example 17, (R)-Methyl-3-phenyl-2-(4-(7-phenyl-3,4-dihydro-1,6-naphthyridin-1(2H)-yl)-pyrimidin-2-ylamino)propanoate] | ≤ 20
14 | O=C(O)[C@@H](Cc1ccccc1)Nc1nccc(N2CCCc3cnc(-c4ccccc4)cc32)n1 [Example 18, (R)-3-Phenyl-2-(4-(7-phenyl-3,4-dihydro-1,6-naphthyridin-1(2H)-yl)pyrimidin-2-ylamino)propanoic acid] | ≤ 20
15 | O=C(O)C[C@@H](Cc1ccccc1)Nc1nccc(N2CCCc3cnc(-c4ccccc4)cc32)n1 [Example 19, (R)-4-Phenyl-3-(4-(7-phenyl-3,4-dihydro-1,6-naphthyridin-1(2H)-yl)pyrimidin-2-ylamino)butanoic acid] | ≤ 20
16 | O=C(C[C@@H](Cc1ccccc1)Nc1nccc(N2CCCc3cnc(-c4ccccc4)cc32)n1)N1CCOCC1 [Example 20, (R)-1-Morpholino-4-phenyl-3-(4-(7-phenyl-3,4-dihydro-1,6-naphthyridin-1(2H)-yl)pyrimidin-2-ylamino)butan-1-one] | ≤ 20

Row | Structure (SMILES) | IC50 [µM]
17 | O=C(C[C@@H](Cc1ccccc1)Nc1nccc(N2CCCc3cnc(-c4ccccc4)cc32)n1)NC1CC1 [Example 21, (R)-N-Cyclopropyl-4-phenyl-3-(4-(7-phenyl-3,4-dihydro-1,6-naphthyridin-1(2H)-yl)pyrimidin-2-ylamino)butanamide] | ≤ 20
18 | O=C(C[C@@H](Cc1ccccc1)Nc1nccc(N2CCCc3cnc(-c4ccccc4)cc32)n1)N1CCNCC1 [Example 22, (R)-4-Phenyl-3-(4-(7-phenyl-3,4-dihydro-1,6-naphthyridin-1(2H)-yl)pyrimidin-2-ylamino)-1-(piperazin-1yl)butan-1-one] | ≤ 20
19 | CC(C)(C)OC(=O)N1CCC(Nc2ncc(F)c(N3CCCc4cnc(-c5ccccc5)cc43)n2)CC1 [Example 24] | ≤ 20
20 | Fc1cnc(NC2CCNCC2)nc1N1CCCc2cnc(-c3ccccc3)cc21 [Example 25, 5-Fluoro-4-(7-phenyl-3,4-dihydro-1,6-naphthyridin-1(2H)-yl)-N-(piperidin-4-yl)pyrimidin-2-amine] | ≤ 20
21 | CC(=O)N1CCC(Nc2ncc(F)c(N3CCCc4cnc(-c5ccccc5)cc43)n2)CC1 [Example 26, 1-(4-(5-Fluoro-4-(7-phenyl-3,4-dihydro-1,6-naphthyridin-1(2H)-yl)pyrimidin-2-yl-amino)piperidin-1-yl)ethanone] | ≤ 20
22 | C[C@@H](Cc1cccc(C(C)(C)N)c1)Nc1nccc(N2CCCc3ncc(-c4ccccc4)cc32)n1 [Example 29, (S)-N-(1-(3-(2-Aminopropan-2-yl)phenyl)propan-2-yl)-4-(7-phenyl-3,4-dihydro-1,5-naphthyridin-1(2H)-yl)pyrimidin-2-amine] | ≤ 20
23 | CC(C)(C)OC(=O)N1CCC(Nc2nccc(N3CCCc4ncc(-c5ccccc5)cc43)n2)CC1 [Example 30, tert-Butyl-4(7-phenyl-3,4-dihydro-1,5-naphthylridin-1(2H)-pyrimidin-2-ylamino)-piperidine-1-carboxylate] | ≤ 20
24 | c1ccc(-c2cnc3c(c2)N(c2ccnc(NC4CCNCC4)n2)CCC3)cc1 [Example 31, 4-(7-Phenyl-3,4-dihydro-1,5-naphthyridin-1(2H)-yl)-N-(piperidin-4-yl)pyrimidin-2-amine] | ≤ 20
25 | CC(=O)N1CCC(Nc2nccc(N3CCCc4ncc(-c5ccccc5)cc43)n2)CC1 [Example 32, 1-(4-(4-(7-Phenyl-3,4-dihydro-1,5-naphthyridin-1(2H)-yl)pyrimidin-2-ylamino)-piperidin-1-yl)ethanone] | ≤ 20
26 | NC(=O)[C@@H](Cc1ccccc1)Nc1nccc(N2CCCc3cnc(-c4ccccc4)cc32)n1 [Example 33, (R)-3-Phenyl-2-(4-(7-phenyl-3,4-dihydro-1,6-naphthyridin-1(2H)-yl)pyrimidin-2-ylamino)propanamide] | ≤ 20
27 | NC1CCC(Nc2nccc(N3CCCc4cnc(-c5ccccc5)cc43)n2)CC1 [Example 34, (1R,4R)-N^1-(4-(7-Phenyl-3,4-dihydro-1,6-naphthyridin-1(2H)-yl)pyrimidin-2-yl)cyclohexane-1,4-diamine] | ≤ 20
28 | CC(=O)NC1CCC(Nc2nccc(N3CCCc4cnc(-c5ccccc5)cc43)n2)CC1 [Example 35, N-((1R,4R)-4-(4-(7-Phenyl-3,4-dihydro-1,6-naphthyridin-1(2H)-yl)pyrimidin-2-ylamino)cyclohexyl)acetamide] | ≤ 20
29 | O=C(CC(F)(F)F)NC1CCC(Nc2nccc(N3CCCc4cnc(-c5ccccc5)cc43)n2)CC1 [Example 36, 3,3,3-Trifluoro-N-((1R,4R)-4-(4-(7-phenyl-3,4-dihydro-1,6-naphthyridin-1(2H)-yl)-pyrimidin-2-ylamino)cyclohexyl)propanamide] | ≤ 20
30 | CC(C)NC1CCC(Nc2nccc(N3CCCc4cnc(-c5ccccc5)cc43)n2)CC1 [Example 37, (1R,4R)-N^1-Isopropyl-N^4-(4-(7-phenyl-3,4-dihydro-1,6-naphthyridin-1(2H)-yl)-pyrimidin-2-yl)cyclohexane-1,4-diamine] | ≤ 20
31 | C[C@@H](Cc1cccc(CN)c1)Nc1nccc(N2CCCc3cnc(-c4ccccc4)cc32)n1 [Example 38] | ≤ 20
